# According to US11473064B2, “Hybrid alphavirus-SARS-CoV-2 particle and methodology of making and using same” (GEORGE MASON RESEARCH FOUNDATION, INC., priority 2020, dated 2022):
# pIC50: −log10 of the molar value.
# Test system: Ha-CoV-2(Luc)
# Experiment: microbe, parasite or virus in culture
# Assay type: cell-based, SARS-CoV-2
# Conditions: Severe acute respiratory syndrome coronavirus 2, HEK-293T, read-out: IC50 (inhibition of Ha-CoV-2(Luc) infection)
smiles,measurement,value
"CCOC(=O)c1c(CSc2ccccc2)n(C)c2cc(Br)c(O)c(CN(C)C)c12 [Arbidol, Arbidol (Umifenovir)]",pIC50,4.80
